Assay [1] has as its system PBMC. Briefly: T-cell proliferation assay ([3H]thymidine incorporation, stimulation index). In kind it is cell-based, human. How it is done: The proliferative responses of PBMCs from different samples can be determined by the standard ^3[H]thymidine incorporation assay as described in published articles (Nehete, 1996; Nehete, 1995). The significance of T-cell proliferative responses to the individual E6 and E7 peptides (in terms of stimulation index [SI]) can be calculated as the fold increase of ^3[H]thymidine incorporation by cells exposed to the peptide over that by the control to which no peptide was added. An SI value of at least 2.0, including at least about 2.1, 2.2, 2.3, 2.4, 2.5, 2.6, 2.7, 2.8, 2.9, 3.0, 3.1, 3.2, 3.3, 3.4, 3.5, 3.6, 3.7, 3.8, 3.9, 4.0 or more, which are considered positive responses. Generally, an SI value is calculated by measuring the amount of radioactivity (cpm) in media from cells incubated with the peptide(s) and dividing by the amount of radioactivity in media from cells not incubated with peptide(s) (media alone).
Heparinized blood was collected from the study participants by venipuncture. PBMCs were isolated by centrifugation on a Ficoll-Hypaque density gradient ([…]; Sigma Chemical Co., St. Louis, Mo.). The proliferative responses of PBMC from different individuals after stimulation with PHA, c-mos peptide, or individual E6 and E7 peptides (Table 4) were determined using the [^3H]thymidine incorporation assay as previously described Nehete et al., 1996). Briefly, each sample was seeded in triplicate in 96-well microtiter plates and incubated for 7 days at 37° C. in a humidified 5% CO2 atmosphere. During the final 16-18 h, 1 μCi of ^3[H]thymidine (6.7 Ci/mmol; ICN Biomedicals, Inc., Costa Mesa, Calif.) was added. The cells were harvested onto filter strips to estimate ^3[H]thymidine incorporation. The specific radioactivity of cells treated with various additions was calculated in each case by subtracting the counts per minute (cpm) values obtained with cells cultured in medium alone. […] The significance of T-cell proliferative responses to the individual E6 and E7 peptides (in terms of stimulation index [SI]) was calculated as the fold increase of [^3H]thymidine incorporation by cells exposed to the peptide over that by the control to which no peptide was added. An SI value ≧3.0, which was considered a positive response, was used for all statistical analyses to determine the significance of proliferative responses and the association with disease-free or disease-recurrence status.
(Incorporation of labelled thymidine or its analogues reports DNA synthesis.)

The test system of assay [2] is PBMC. Put plainly: Cytokine analysis of PBMC culture supernatants (Cytoscreen immunoassay kits). In kind it is cell-based, human. Conditions: 48 h; for IL-4 production, number of patients positive/number tested: positive = above kit sensitivity 2.0 pg/ml; for IL-10 production, number of patients positive/number tested: positive = above kit sensitivity 5.0 pg/ml; for EL-12 production, number of patients positive/number tested: positive = above kit sensitivity IL-12 = 1.0 pg/ml; for IFN-γ production, number of patients positive/number tested: positive = above kit sensitivity 4.0 pg/ml; for EL-2 production, number of patients positive/number tested: positive = above kit sensitivity IL-2 = 8.7 pg/ml. How it is done: Cryopreserved PBMC were used for these assays. The PBMC (1×10^5) were incubated with various HPV peptides in RPMI-1640 medium (containing 10% fetal calf serum) in triplicate wells of 96-well round-bottom plates for 48 h at 37° C. Supernatants (100 μl) were removed from each well after centrifugation and stored frozen at −70° C. in another 96-well plate. The plates were then thawed and the supernatants assayed for various cytokines (IFN-γ, IL-2, IL-4, IL-10, and IL-12) using the Cytoscreen immunoassay kits (Biosource International, Camarillo, Calif.) according to the manufacturer's instructions.

Where “and” joins values, the source holds several entries; their conditions need not be identical. Identical values can stand only once.

With “QLLRREVYDFAFRDL (listed as Human papillomavirus) [Q15L, E6 peptide from HPV-16, aa 43-57]”, in the assay with PBMC [1], the “level of proliferative responses compared with the other peptides” value (“level … compared with the other peptides” below) is listed as “higher levels of proliferative responses”. The “Proliferative Response No (SI < 3.0) to specific peptide, number (%) of women” value (“Proliferative Response No … (%) of women” below) in the assay with PBMC [1] (Group 3 (disease-free), n = 22) is 11 (50%). The “Proliferative Response No … (%) of women” value with PBMC [1] (Group 4 (recurrence), n = 10) was 10 (100%). Moreover, in the assay with PBMC [2] (Group 3 (n = 8)), the “IL-4 production, number of patients positive/number tested” value is “none and 0/8”; the “IL-10 production, number of patients positive/number tested” value is 3 and 3/8; the “EL-12 production, number of patients positive/number tested” value was 3 of 8 and 3/8. Moreover, in the assay with PBMC [2] (Group 4 (n = 6)), the “IL-4 production, number of patients positive/number tested” value was 1 of the 6 and 1/6; the “IFN-γ production, number of patients positive/number tested” value is on record as 0/6; the “IL-10 production, number of patients positive/number tested” value is 5 of 6 and 5/6; the “EL-2 production, number of patients positive/number tested” value is on record as 0/6. Also, the “EL-12 production, number of patients positive/number tested” value with PBMC [2] (Group 4 (n = 6)) is given as 0/6.

Take “QAEPDRAHYNIVTFCCKCD (listed as Human papillomavirus) [Q19D, E7 peptide from HPV-16, aa 44-62]”: the “level … compared with the other peptides” value with PBMC [1] was “higher levels of proliferative responses”. Moreover, in the assay on PBMC [1] (Group 3 (disease-free), n = 22), the “Proliferative Response No … (%) of women” value is reported as 9 (41%). Moreover, the “Proliferative Response No … (%) of women” value in the assay on PBMC [1] (Group 4 (recurrence), n = 10) is listed as 10 (100%). Moreover, in the assay with PBMC [2] (Group 3 (n = 8)), the “IL-4 production, number of patients positive/number tested” value was “none and 0/8”; the “IL-10 production, number of patients positive/number tested” value is 3 and 3/8; the “EL-12 production, number of patients positive/number tested” value was 6 of 8 and 6/8. Moreover, in the assay on PBMC [2] (Group 4 (n = 6)), the “IL-4 production, number of patients positive/number tested” value is 1 of the 6 and 1/6; the “IFN-γ production, number of patients positive/number tested” value is reported as 0/6; the “IL-10 production, number of patients positive/number tested” value was 6 of 6 and 6/6; the “EL-2 production, number of patients positive/number tested” value was 0/6. Further, in the assay with PBMC [2] (Group 4 (n = 6)), the “EL-12 production, number of patients positive/number tested” value is 1/6.

On to “STRTPEDSNSLGT (Murine) [c-mos peptide, peptide from the c-mos protooncogene, aa 158-170, used as a negative control, reference compound]”, for which the “stimulation index (SI), proliferative response” value in the assay on PBMC [1] (women in the four study groups) is on record as < 2.0.

As for “VYDFAFRDLC (listed as Human papillomavirus) [V10C, E6 peptide from HPV-16, aa 49-58]”, in the assay with PBMC [1], the “level … compared with the other peptides” value was “higher levels of proliferative responses”. Moreover, the “Proliferative Response No … (%) of women” value is listed as 11 (50%) with PBMC [1] (Group 3 (disease-free), n = 22) and 10 (100%) in the assay on PBMC [1] (Group 4 (recurrence), n = 10).

“RAHYNIVTF (listed as Human papillomavirus) [R9F, E7 peptide from HPV-16, aa 49-57]”: the “level … compared with the other peptides” value in the assay on PBMC [1] was “higher levels of proliferative responses”. Besides, the “Proliferative Response No … (%) of women” value in the assay with PBMC [1] (Group 3 (disease-free), n = 22) is listed as 12 (54%).

These data come from patent publication US7659071B2, “Methods and compositions relating to HPV-associated pre-cancerous and cancerous growths, including CIN” (Board of Regents, the University of Texas System, priority 2001, dated 2010).
